Test results reported in patent publication US20050187262A1, “Compositions comprising (S)-amlodipine and an angiotensin receptor blocker and methods of their use” (priority 2004, published 2005).

Columns and labels:
Type in all cases: in vivo, rat
rats [1] = tested on: rats
Experimental: (§1) (S)-amlodipine malate and seven ARBs (candasartan, eprosartan, irbesartan, losartan, olmesartan, telmisartan and valsartan) were evaluated. The study was conducted in three parts. Phase I evaluated the time-course of the hypotensive actions of all eight agents ([S]-amlodipine and the seven ARBs). In Phase II, the dose-responsive effects of [S]-amlodipine malate and the seven ARBs were evaluated individually. From this phase of the study, ED30 and ED50 doses of each of the seven ARBs were identified, defined as the dose that produced 30 or 50 percent of the hypotensive effect produced by a rapid i.v. injection (30 μg/kg) of sodium nitroprusside (NTP), a short-acting vasodilator. In Phase III, the dose response to [S]-amlodipine was evaluated in the presence and absence of the ED30 and ED50dose of each of the seven ARBs, with the objective of comparing the extent to which each ARB, at its ED30 or ED50, shifted the dose-response curve of [S]-amlodipine to the left and thus, lowering the apparent ED50 of the calcium channel blocker.
(§2) Animals were anesthetized with thiobutabarbital sodium (Inactin®, 150 mg/kg, delivered i.p.), tracheotomized and placed on a thermostatically controlled heating pad (37-38° C.). The jugular vein and the carotid artery were cannulated with PE-50 tubing for drug administration and recording of cardiovascular parameters, respectively. Blood pressure was recorded from the carotid artery by means of a pressure transducer and heart rate was derived electronically from the blood pressure signal. The signal output derived electronically from the arterial pressure was analyzed with a digital computer. The software IOX-16 continuously recorded the data every 5 sec during the entire procedure for each rat. Raw arterial pressure (in mmHg) and heart rate (beats per min), as well as changes in these two parameters relative to baseline or pre-drug levels (for doses other than initial dose), both in raw units (mm Hg or beats per min [bpm]) and as percentage change from baseline were captured and analyzed. The animals were allowed to equilibrate for 15-20 min before any treatment.
(§3) Doses are expressed in terms of free active substance. Each treatment was administered in a volume of 1 mL/kg by slow (over 20-30 seconds) i.v. bolus for all test articles, in all three phases.
(§4) The data were reported as mean±S.E.M. (standard error of the mean) from 3-5 rats per group. Raw arterial pressure (in mmHg) and heart rate (beats per min), as well as changes in these two parameters relative to baseline or pre-drug levels (for doses other than initial dose), both in raw units (mmHg or beats per min [bpm]) and as percentage change from baseline, were captured and analyzed.

rats [2] = assay: Phase II: dose-responsive hypotensive effects of the individual agents, ED30/ED50 relative to sodium nitroprusside; settings: for ED30: dose causing 30% of the maximal drop in blood pressure produced by sodium nitroprusside 30 μg/kg i.v.; for ED50: Rattus norvegicus
Experimental: as §1, with “From this phase of the study, ED30 and ED50 doses of each of the seven ARBs were identified, defined as the dose that produced 30 or 50 percent of the hypotensive effect produced by a rapid i.v. injection (30 μg/kg) of sodium nitroprusside (NTP), a short-acting vasodilator.” left out
as §2, with “The” for “Animals were anesthetized with thiobutabarbital sodium (Inactin®, 150 mg/kg, delivered i.p.), tracheotomized and placed on a thermostatically controlled heating pad (37-38° C.). The”
as §3, §4

rats [3] = assay: Phase III: dose response to (S)-amlodipine malate in the absence and presence of an ARB; settings: for position/shift of the dose response curve of (S)-amlodipine malate plus ARB versus (S)-amlodipine malate alone: ARB given at its ED30, FIGS. 1A and 1B; for ED50: Rattus norvegicus, iv, ARB given at its ED30, read-out: apparent ED50 of (S)-amlodipine malate when combined with the ARB; for Potential Dosage Adjustment (%): extent to which (S)-amlodipine malate could be lowered when co-administered with the ARB
Experimental: as §1, §2, §3, §4
ED30 and ED50 for each drug were defined as the dose causing a decline in arterial pressure corresponding to 30% and to 50%, respectively, of the maximal drop in blood pressure produced by fast bolus i.v. injection (30 μg/kg) of sodium nitroprusside.
Dose-response curves with (S)-amlodipine malate in the absence and presence of each of the seven ARBs at its ED30 are shown in FIGS. 1A and 1B. The data shown in the figures are from experiments in which ED30 doses of each of the ARBs was combined with (S)-amlodipine malate. These were chosen because ED30 doses were obtainable by direct interpolation of dose response curves from Phase II. For several of the ARBs, doses corresponding to ED50 were obtained from extrapolation of their dose response curves.

[4] = iv, dose causing 50% of the maximal drop in blood pressure produced by sodium nitroprusside 30 μg/kg i.v., read-out: ED50 (estimated)
[5] = iv, hypotensive effect did not reach 50% of the maximum NTP effect, read-out: ED50 (extrapolated from dose response curve)

Row | SMILES | ED30 (rats [2]; i.v.) [mg/kg] | position/shift of the dose response curve of (S)-amlodipine malate plus ARB versus (S)-amlodipine malate alone (rats [3]) | ED50 (rats [2]; [5]) [mg/kg] | ED50 (rats [3]) [mg/kg] | Potential Dosage Adjustment (%) (rats [3]) | other results
1 | CCOC(=O)C1=C(COCCN)NC(C)=C(C(=O)OC)[C@@H]1c1ccccc1Cl.O=C(O)C[C@H](O)C(=O)O [(S)-amlodipine malate, (S)-Amlodipine-L-Malate] | 0.056 | – | – | – | – | time post-injection to maximum/peak hypotensive effect (rats [1]; 100 μg/kg i.v.): 35 to 55 min; maximum effect, decrease in blood pressure (rats [1]; 100 μg/kg i.v., anesthetized rats): 14-17 mmHg; maximum decline in MBP from baseline values (rats [2]; doses 3 to 300 μg/kg i.v.): 49±1%; ED50 (estimated) (rats [2]; i.v., dose causing 50% of the maximal drop in blood pressure produced by sodium nitroprusside 30 μg/kg i.v.): 0.11 mg/kg; HR after injection of each dose (rats [2]; rat, in vivo, iv): gradually and concomitantly increased; ED50 of (S)-amlodipine malate in the absence of an ARB (rats [3]; i.v., no ARB): 0.092 mg/kg
2 | CCOc1nc2cccc(C(=O)O)c2n1Cc1ccc(-c2ccccc2-c2nnn[nH]2)cc1 [Candasartan, 2-ethoxy-1-[[2′-(1H-tetrazol-5-yl)[1,1′-biphenyl]-4-yl]methyl]-1H-benzimidazole-7-carboxylic acid] | 0.008 | offset | – | – | – | time post-injection to maximum decline of MBP (rats [1]; 30 μg/kg i.v.): 30 min; maximum declines of mean blood pressure (MBP) (rats [1]; 30 μg/kg i.v., at 30 min post-injection): about 20 mmHg; decline in MBP at the next higher dose (rats [2]; 300 mg/kg i.v.): no further decline; ED50 (rats [2]; [4]): 0.052 mg/kg; maximum decrease in MBP from baseline values (rats [2]; reached with 100 μg/kg i.v.): 34±2%
3 | CCCCc1ncc(/C=C(\Cc2cccs2)C(=O)O)n1Cc1ccc(C(=O)O)cc1 [Eprosartan, (E)-α-[[2-butyl-1-[(4-carboxyphenyl)methyl]-1H-imidazol-5-yl]methylene]-2-thiophenepropanoic acid] | 0.104 | – | ~7 | 0.07 | 24 | fall in MBP from baseline values at the next higher dose (rats [2]; 3000 mg/kg i.v.): 23±2%; maximum decrease in MBP from baseline values (rats [2]; reached with 1000 μg/kg i.v.): 22±2%
4 | CCCCC1=NC2(CCCC2)C(=O)N1Cc1ccc(-c2ccccc2-c2nnn[nH]2)cc1 [Irbesartan, 2-butyl-3-[[2′-(1H-tetrazol-5-yl)[1,1′-bephenyl]-4-yl]methyl]-1,3-diazaspiro[4,4]non-1-en-4-one] | 0.649 | – | – | 0.071 | 23 | ED50 (rats [2]; [4]): 2.21 mg/kg; maximum decrease in MBP from baseline values (rats [2]; reached with 3,000 μg/kg i.v.): 28±1%
5 | CCCCc1nc(Cl)c(CO)n1Cc1ccc(-c2ccccc2-c2nnn[nH]2)cc1 [Losartan, 2-butyl-4-chloro-1-[[2′-(1H-tetrazol-5-yl)[1,1′-biphenyl]-4-yl]methyl]-1H-imidazole-5-methanol] | 0.625 | – | 10 | 0.078 | 15 | maximum decrease in MBP from baseline values (rats [2]; reached with 3,000 μg/kg i.v.): 23±3%
6 | CCCc1nc2c(C)cc(-c3nc4ccccc4n3C)cc2n1Cc1ccc(-c2ccccc2C(=O)O)cc1 [Telmisartan, 4′-[(1,4′-dimethyl-2′-propyl[2,6′-bi-1H-benzimidazol]-1′-yl)methyl]-[1,1′-biphenyl]-2-carboxylic acid] | 0.242 | offset | ~2 | – | – | fall in MBP from baseline values at the next higher dose (rats [2]; 1000 mg/kg i.v.): 23±3%; maximum decrease in MBP from baseline values (rats [2]; reached with 300 μg/kg i.v.): 19±2%
7 | CCCCC(=O)N(Cc1ccc(-c2ccccc2-c2nnn[nH]2)cc1)[C@H](C(=O)O)C(C)C [Valsartan, N-(1-oxopentyl)-N-[[2′-(1H-tetrazol-5-yl)[1,1′-biphenyl]-4-yl]methyl]-L-valine] | 0.229 | greatest leftward shift | ~4 | 0.063 | 32 | fall in MBP from baseline values at the next higher dose (rats [2]; 1000 mg/kg i.v.): 19±3%; maximum decrease in MBP from baseline values (rats [2]; reached with 300 μg/kg i.v.): 18±3%
